Data set [1] in a line: Delta logP. In kind it is ADME. Conditions: octanol/water.
The nature of data set [2]: log P value in cyclohexane:buffer at pH 7.4. In kind it is physicochemical.
The nature of data set [3]: The compound was tested for its solubility at a pH of 10.5. In kind it is ADME. Conditions: pH 10.5; read-out: S.
Data set [4] can be described thus: The compound was tested for its solubility at a pH of 5.0. In kind it is ADME. The conditions noted are these: pH 5; read-out: S.
Data set [5] is described as follows: The compound was tested for its solubility at a pH of 6.3. In kind it is ADME. Conditions: pH 6.3; read-out: S.
A short description of data set [6]: The compound was tested for its solubility at a pH of 7.4. In kind it is ADME. The conditions noted are these: pH 7.4; read-out: S.
A short description of data set [7]: The compound was tested for its solubility at a pH of 8.5. In kind it is ADME. The conditions noted are these: pH 8.5; read-out: S.
The nature of data set [8]: The compound was tested for its solubility at a pH of 9.6. In kind it is ADME. The conditions noted are these: pH 9.6; read-out: S.

With `Cc1cc(-c2nc3ccccc3s2)ccc1N`, the “delta logP” value in data set [1] is 1.45. The compound further had a logD in data set [2] of 2.51.

Turning to `Cc1cc(-c2nc3cc(F)ccc3s2)ccc1NC(=O)[C@@H](N)CCCCN.Cl.Cl`, the solubility is 0.01 mg/mL in data set [3]; over 53.2 mg/mL in data set [4]; 7 mg/mL in data set [5]; 0.39 mg/mL in data set [6]; 0.075 mg/mL in data set [7]; 0.02 mg/mL in data set [8].

As a reminder, the logD is the decadic logarithm of the distribution of all forms, ionised or not, between an organic phase and buffer at a given pH.
